Experimental data from PubChem BioAssay (NCI).
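Method: 48-hour compound exposure of cells in 96-well plates, five concentrations, linear interpolation of endpoints. GI50 marks 50% less growth. Definition used: TGI = concentration required for complete inhibition of growth.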

What was measured:
Experiment in all cases: DTP human tumour cell line panel, 48 h
[1] = test system: 786-0 renal
[2] = test system: A498 renal
[3] = test system: A549 NSCLC
[4] = test system: ACHN renal
[5] = test system: BT-549 breast
[6] = test system: CAKI-1 renal
[7] = test system: CCRF-CEM leukemia
[8] = test system: DU-145 prostate
[9] = test system: EKVX NSCLC
[10] = test system: HCC-2998 colon
[11] = test system: HCT-116 colon
[12] = test system: HCT-15 colon
[13] = test system: HL-60(TB) leukemia
[14] = test system: HOP-62 NSCLC
[15] = test system: HOP-92 NSCLC
[16] = test system: HS 578T breast
[17] = test system: HT29 colon
[18] = test system: IGROV1 ovarian
[19] = test system: K-562 leukemia
[20] = test system: KM12 colon
[21] = test system: LOX IMVI melanoma
[22] = test system: M14 melanoma
[23] = test system: MALME-3M melanoma
[24] = test system: MCF7 breast
[25] = test system: MDA-MB-231 breast
[26] = test system: MDA-MB-435
[27] = test system: MDA-MB-468 breast
[28] = test system: MOLT-4 leukemia
[29] = test system: NCI-H226 lung
[30] = test system: NCI-H23 lung
[31] = test system: NCI-H460 lung
[32] = test system: NCI-H522 lung
[33] = test system: NCI/ADR-RES ovarian
[34] = test system: OVCAR-3 ovarian
[35] = test system: OVCAR-4 ovarian
[36] = test system: OVCAR-5 ovarian
[37] = test system: OVCAR-8 ovarian
[38] = test system: PC-3 prostate
[39] = test system: RPMI-8226 leukemia
[40] = test system: RXF 393 renal
[41] = test system: SF-268 CNS
[42] = test system: SF-295 CNS
[43] = test system: SF-539 CNS
[44] = test system: SK-MEL-2 melanoma
[45] = test system: SK-MEL-28 melanoma
[46] = test system: SK-MEL-5 melanoma
[47] = test system: SK-OV-3 ovarian
[48] = test system: SN12C renal
[49] = test system: SNB-19 CNS
[50] = test system: SNB-75 CNS
[51] = test system: SR leukemia
[52] = test system: SW-620 colon
[53] = test system: T-47D breast
[54] = test system: TK-10 renal
[55] = test system: U251 CNS
[56] = test system: UACC-257 melanoma
[57] = test system: UACC-62 melanoma
[58] = test system: UO-31 renal

CCCS(=O)(=O)c1oc(-c2ccc(F)cc2)nc1S(=O)(=O)c1ccc(F)cc1
GI50 [1]: 1.6 µM | TGI [1]: 3.1 µM | GI50 [2]: 17.2 µM | TGI [2]: 31 µM | GI50 [3]: 13.3 µM | TGI [3]: 30.6 µM | GI50 [4]: 1.61 µM | TGI [4]: 2.96 µM | GI50 [5]: 1.98 µM | TGI [5]: 3.57 µM | GI50 [6]: 1.43 µM | TGI [6]: 2.76 µM | GI50 [7]: 0.298 µM | TGI [7]: 1.09 µM | GI50 [8]: 1.59 µM | TGI [8]: 2.96 µM | GI50 [9]: 1.62 µM | TGI [9]: 3.27 µM | GI50 [10]: 4.05 µM | TGI [10]: 15.9 µM | GI50 [11]: 1.6 µM | TGI [11]: 3.49 µM | GI50 [12]: 1.22 µM | TGI [12]: 2.73 µM | GI50 [13]: 2.17 µM | TGI [13]: > 100 µM | GI50 [14]: 15.7 µM | TGI [14]: 31.1 µM | GI50 [15]: 1.8 µM | TGI [15]: 4.08 µM | GI50 [16]: 2.33 µM | TGI [16]: 7.43 µM | GI50 [17]: 2.06 µM | TGI [17]: 4.9 µM | GI50 [18]: 1.84 µM | TGI [18]: 3.84 µM | GI50 [19]: 1.64 µM | TGI [19]: > 100 µM | GI50 [20]: 14.5 µM | TGI [20]: 31 µM | GI50 [21]: 1.28 µM | TGI [21]: 2.6 µM | GI50 [22]: 1.68 µM | TGI [22]: 3.56 µM | GI50 [23]: 1.49 µM | TGI [23]: 2.83 µM | GI50 [24]: 1.3 µM | TGI [24]: 3.08 µM | GI50 [25]: 1.65 µM | TGI [25]: 3.04 µM | GI50 [26]: 1.45 µM | TGI [26]: 2.98 µM | GI50 [27]: 1.29 µM | TGI [27]: 2.89 µM | GI50 [28]: 1.14 µM | TGI [28]: > 100 µM | GI50 [29]: 13 µM | TGI [29]: 34.8 µM | GI50 [30]: 1.9 µM | TGI [30]: 4.22 µM | GI50 [31]: 4.46 µM | TGI [31]: 19.4 µM | GI50 [32]: 1.19 µM | TGI [32]: 2.64 µM | GI50 [33]: 2.36 µM | TGI [33]: 6.35 µM | GI50 [34]: 1.35 µM | TGI [34]: 2.77 µM | GI50 [35]: 1.86 µM | TGI [35]: 4.04 µM | GI50 [36]: 3.48 µM | TGI [36]: 13.7 µM | GI50 [37]: 2.12 µM | TGI [37]: 4.99 µM | GI50 [38]: 3.51 µM | TGI [38]: 16.7 µM | GI50 [39]: 2.22 µM | TGI [39]: 7.44 µM | GI50 [40]: 1.1 µM | TGI [40]: 2.44 µM | GI50 [41]: 3.18 µM | TGI [41]: 14.7 µM | GI50 [42]: 12.6 µM | TGI [42]: 25.5 µM | GI50 [43]: 1.55 µM | TGI [43]: 2.89 µM | GI50 [44]: 10.4 µM | TGI [44]: 22.7 µM | GI50 [45]: 1.74 µM | TGI [45]: 3.17 µM | GI50 [46]: 3.32 µM | TGI [46]: 12 µM | GI50 [47]: 16.3 µM | TGI [47]: 30.9 µM | GI50 [48]: 2.62 µM | TGI [48]: 9.51 µM | GI50 [49]: 15 µM | TGI [49]: 28.2 µM | GI50 [50]: 4.23 µM | TGI [50]: 18.4 µM | GI50 [51]: 1.6 µM | TGI [51]: > 100 µM | GI50 [52]: 0.685 µM | TGI [52]: 2.17 µM | GI50 [53]: 1.83 µM | TGI [53]: 4.2 µM | GI50 [54]: 1.88 µM | TGI [54]: 3.35 µM | GI50 [55]: 16.4 µM | TGI [55]: 30.6 µM | GI50 [56]: 1.62 µM | TGI [56]: 3.13 µM | GI50 [57]: 1.68 µM | TGI [57]: 3.11 µM | GI50 [58]: 1.46 µM | TGI [58]: 2.78 µM
